This test has as its system CD8F1 mice, subcutaneous mammary adenocarcinoma, T/C%. Briefly: NCI In Vivo Anticancer Drug Screen. Data for tumor model Mammary Adenocarcinoma CD8F1 (subcutaneous) in CD8F1. The conditions noted are these: higher = larger tumour. The procedure:
The antitumor activity of compounds was measured in mice bearing transplantable tumors. Survival or tumor size were measured and the results are expressed as the measurement made in the treated group (T) divided by the measurement made in the vehicle treated control group (C). The tumor model used in this assay is Mammary Adenocarcinoma CD8F1 (subcutaneous) in CD8F1

Setting [1] is: endpoint: median tumor weight change, dose: 62.5 mg/kg/injection, schedule: Q01DX001 (ip), vehicle: saline with Tween-80.
The mark [2] stands for this setting: endpoint: median tumor weight change, dose: 250.0 mg/kg/injection, schedule: Q01DX001 (ip), vehicle: saline with Tween-80.
Where [3] appears, read: endpoint: median tumor weight change, dose: 500.0 mg/kg/injection, schedule: Q01DX001 (ip), vehicle: saline with Tween-80.
The mark [4] stands for this setting: endpoint: median tumor weight change, dose: 31.25 mg/kg/injection, schedule: Q01DX001 (ip), vehicle: saline with Tween-80.
The mark [5] stands for this setting: endpoint: median tumor weight change, dose: 62.5 mg/kg/injection, schedule: Q01DX001 (ip), vehicle: Klucel (hydroxypropylcellulose) (HPC).
Where [6] appears, read: endpoint: median tumor weight change, dose: 125.0 mg/kg/injection, schedule: Q01DX001 (ip), vehicle: Klucel (hydroxypropylcellulose) (HPC).
[7] abbreviates: endpoint: median tumor weight change, dose: 125.0 mg/kg/injection, schedule: Q01DX001 (ip), vehicle: saline with Tween-80.

Structures are written as SMILES. Where “and” joins values, the source holds several entries; their conditions need not be identical. Identical values can stand only once. Results filed as inconclusive are left out.

Take `C[C@]12CC[C@H](O)CC1=CC[C@@H]1[C@@H]2CC[C@]2(C)C(=O)CC[C@@H]12`: the T/C was 115 % of control under setting [1]; 104 % of control under setting [2]; 90 % of control under setting [3]; 70 % of control (endpoint: median tumor weight change, dose: 1000.0 mg/kg/injection, schedule: Q01DX001 (ip), vehicle: saline with Tween-80).

Regarding `C/C(=N\N=C(/[Se])N1CC2CCC(CC2)C1)c1ccccn1`, the T/C is 86 % of control (endpoint: median tumor weight change, dose: 8.0 mg/kg/injection, schedule: Q01DX001 (ip), vehicle: Klucel (hydroxypropylcellulose) (HPC)); 114 % of control (endpoint: median tumor weight change, dose: 15.62 mg/kg/injection, schedule: Q01DX001 (ip), vehicle: Klucel (hydroxypropylcellulose) (HPC)); 109 % of control (endpoint: median tumor weight change, dose: 15.62 mg/kg/injection, schedule: Q01DX001 (ip), vehicle: saline with Tween-80); 27 % of control (endpoint: median tumor weight change, dose: 16.0 mg/kg/injection, schedule: Q01DX001 (ip), vehicle: Klucel (hydroxypropylcellulose) (HPC)); 55 % of control (endpoint: median tumor weight change, dose: 31.0 mg/kg/injection, schedule: Q01DX001 (ip), vehicle: Klucel (hydroxypropylcellulose) (HPC)); 87 % of control under setting [4]. For the same compound, the T/C was 18 % of control (endpoint: median tumor weight change, dose: 62.0 mg/kg/injection, schedule: Q01DX001 (ip), vehicle: Klucel (hydroxypropylcellulose) (HPC)); 122 % of control under setting [5]; 65 % of control under setting [1]; 111 % of control under setting [6]; 59 % of control under setting [7].

Turning to `ClC1C(Cl)C(Cl)C(Cl)C(Cl)C1Cl` (configuration not stated), the T/C reads like this: under setting [5], 169 % of control; under setting [6], 105 % of control; (endpoint: median tumor weight change, dose: 250.0 mg/kg/injection, schedule: Q01DX001 (ip), vehicle: Klucel (hydroxypropylcellulose) (HPC)) 115 % of control; (endpoint: median tumor weight change, dose: 500.0 mg/kg/injection, schedule: Q01DX001 (ip), vehicle: Klucel (hydroxypropylcellulose) (HPC)) 64 % of control.

As for `CN1N=C(N)c2cn(C3OC(COP(=O)(O)O)C(O)C3O)c3ncnc1c23` (configuration not stated), the T/C by setting is: (endpoint: median tumor weight (est.), dose: 9.37 mg/kg/injection, schedule: Q07DX005 (ip), vehicle: other) 46 % of control; (endpoint: median tumor weight (est.), dose: 12.5 mg/kg/injection, schedule: Q07DX005 (ip), vehicle: water) 121 % of control; (endpoint: median tumor weight (est.), dose: 18.75 mg/kg/injection, schedule: Q07DX005 (ip), vehicle: other) 52 % of control; (endpoint: median tumor weight (est.), dose: 25.0 mg/kg/injection, schedule: Q07DX005 (ip), vehicle: water) 54 % of control; (endpoint: median tumor weight (est.), dose: 37.5 mg/kg/injection, schedule: Q07DX005 (ip), vehicle: other) 25 % of control; (endpoint: median tumor weight (est.), dose: 50.0 mg/kg/injection, schedule: Q07DX005 (ip), vehicle: water) 25 % of control. The T/C runs as follows: (endpoint: median tumor weight (est.), dose: 75.0 mg/kg/injection, schedule: Q07DX005 (ip), vehicle: other) 16 % of control; (endpoint: median tumor weight (est.), dose: 100.0 mg/kg/injection, schedule: Q07DX005 (ip), vehicle: water) 7 % of control; (endpoint: median tumor weight (est.), dose: 150.0 mg/kg/injection, schedule: Q07DX005 (ip), vehicle: other) 5 % of control.

For the compound `O=C1C(=O)c2cccnc2-c2ncccc21`, the T/C by setting is: (endpoint: median tumor weight change, dose: 1.56 mg/kg/injection, schedule: Q01DX001 (ip), vehicle: Klucel (hydroxypropylcellulose) (HPC)) 107 % of control; (endpoint: median tumor weight change, dose: 3.12 mg/kg/injection, schedule: Q01DX001 (ip), vehicle: Klucel (hydroxypropylcellulose) (HPC)) 117 % of control.

For the compound `C[CH2][Ge]([CH2]C)[CH2]C.C[CH2][Ge]([CH2]C)[CH2]C.C[CH2][Ge]([CH2]C)[O][Ge]([CH2]C)[CH2]C`, the T/C reads like this: under setting [7], 81 % of control; under setting [3], 114 % of control.

Take `O/N=C/c1ccccc1O.O/N=C/c1ccccc1O.[Cu]`: the T/C under setting [4] is 90 % of control and the T/C under setting [1] was 59 % of control.

Take `N=C(N)SCc1cccc2c(=O)cc(-c3ccccc3)oc12`: the T/C was 151 % of control (endpoint: median tumor weight change, dose: 125.0 mg/kg/injection, schedule: Q01DX001 (ip), vehicle: suspension in saline); 151 % of control (endpoint: median tumor weight change, dose: 250.0 mg/kg/injection, schedule: Q01DX001 (ip), vehicle: suspension in saline); 106 % of control (endpoint: median tumor weight change, dose: 500.0 mg/kg/injection, schedule: Q01DX001 (ip), vehicle: suspension in saline); 123 % of control (endpoint: median tumor weight change, dose: 1000.0 mg/kg/injection, schedule: Q01DX001 (ip), vehicle: suspension in saline).

For the compound `C/C(=N\NC(N)=O)c1cccc(/C(C)=N/NC(N)=O)n1`, the T/C under setting [1] is 64 % of control, the T/C under setting [7] is 53 % of control and the T/C under setting [2] is 48 % of control.

On to `C#CCNC1=C(C)C(=O)C2=C(C1=O)[C@H](COC(N)=O)[C@]1(OC)[C@@H]3N[C@@H]3CN21`, for which the T/C by setting is: (endpoint: median tumor weight change, dose: 16.0 mg/kg/injection, schedule: Q01DX001 (ip), vehicle: distilled water + Tween-80) 75 % of control; (endpoint: median tumor weight change, dose: 31.0 mg/kg/injection, schedule: Q01DX001 (ip), vehicle: distilled water + Tween-80) 27 % of control.

Consider `CC(=O)NC(C=O)OCC=O` (configuration not stated), for which the T/C reads like this: (endpoint: median tumor weight change, dose: 62.5 mg/kg/injection, schedule: Q01DX001 (ip), vehicle: water) 85 % of control; (endpoint: median tumor weight change, dose: 125.0 mg/kg/injection, schedule: Q01DX001 (ip), vehicle: water) 118 % of control; (endpoint: median tumor weight change, dose: 250.0 mg/kg/injection, schedule: Q01DX001 (ip), vehicle: water) 118 % of control; (endpoint: median tumor weight change, dose: 500.0 mg/kg/injection, schedule: Q01DX001 (ip), vehicle: water) 34 % of control.

Take `CCOc1cc2c(cc1C(C)c1ccc(OC)cc1)OCO2` (configuration not stated): the T/C is, setting by setting: (endpoint: median tumor weight change, dose: 62.5 mg/kg/injection, schedule: Q01DX001 (ip), vehicle: distilled water + alcohol) 102 % of control; (endpoint: median tumor weight change, dose: 125.0 mg/kg/injection, schedule: Q01DX001 (ip), vehicle: distilled water + alcohol) 62 % of control; (endpoint: median tumor weight change, dose: 250.0 mg/kg/injection, schedule: Q01DX001 (ip), vehicle: distilled water + alcohol) 67 % of control; (endpoint: median tumor weight change, dose: 500.0 mg/kg/injection, schedule: Q01DX001 (ip), vehicle: distilled water + alcohol) 91 % of control.

In the case of `CC(=O)CC(C)=O.CC(=O)CC(C)=O.O=N[O-].O=N[O-].[Co]`, the T/C by setting is: under setting [1], 96 % of control; under setting [7], 38 % of control.

On to `CNc1n[n+](-c2ccccc2)no1`, for which the T/C (endpoint: mean tumor weight, dose: 3.12 mg/kg/injection, schedule: Q07DX006 (ip), vehicle: saline) was 90 % of control; the T/C (endpoint: mean tumor weight, dose: 12.5 mg/kg/injection, schedule: Q07DX006 (ip), vehicle: saline) was 27 % of control; the T/C (endpoint: mean tumor weight, dose: 25.0 mg/kg/injection, schedule: Q07DX006 (ip), vehicle: saline) was 81 % of control; the T/C (endpoint: mean tumor weight, dose: 50.0 mg/kg/injection, schedule: Q07DX006 (ip), vehicle: saline) is 2 % of control; the T/C (endpoint: median tumor weight (est.), dose: 3.12 mg/kg/injection, schedule: Q07DX005 (ip), vehicle: saline) was 157 % of control; the T/C (endpoint: median tumor weight (est.), dose: 50.0 mg/kg/injection, schedule: Q07DX005 (ip), vehicle: saline) is 50 % of control and 60 % of control.

Take `CC1=C(/C=C/C(C)=C/C=C/C(C)=C/C(=O)O)C(C)(C)CCC1`: the T/C reads like this: (endpoint: median tumor weight (est.), dose: 8.0 mg/kg/injection, schedule: Q07DX005 (ip), vehicle: saline with Tween-80) 47 % of control; (endpoint: median tumor weight (est.), dose: 16.0 mg/kg/injection, schedule: Q07DX005 (ip), vehicle: saline with Tween-80) 71 % of control; (endpoint: median tumor weight (est.), dose: 64.0 mg/kg/injection, schedule: Q07DX005 (ip), vehicle: saline with Tween-80) 92 % of control and 106 % of control; (endpoint: median tumor weight (est.), dose: 256.0 mg/kg/injection, schedule: Q07DX005 (ip), vehicle: saline with Tween-80) 49 % of control.

On to `C[CH2][Sn]([CH2]C)([CH2]C(=O)OC)[CH2]C(=O)OC`, for which the T/C (endpoint: median tumor weight change, dose: 16.0 mg/kg/injection, schedule: Q01DX001 (ip), vehicle: saline with Tween-80) was 78 % of control.

With `COC1C(O)C(C)OC(OC2C(Oc3cccc4c(O)c5c(=O)oc6ccc(C)c7c(=O)oc(c34)c5c67)OC(C)C(O)C2O)C1O` (configuration not stated), the T/C reads like this: (endpoint: median tumor weight (est.), dose: 12.5 mg/kg/injection, schedule: Q07DX005 (ip), vehicle: Klucel (hydroxypropylcellulose) (HPC)) 73 % of control; (endpoint: median tumor weight (est.), dose: 25.0 mg/kg/injection, schedule: Q07DX005 (ip), vehicle: Klucel (hydroxypropylcellulose) (HPC)) 75 % of control; (endpoint: median tumor weight (est.), dose: 50.0 mg/kg/injection, schedule: Q07DX005 (ip), vehicle: Klucel (hydroxypropylcellulose) (HPC)) 50 % of control.

The values above are taken from PubChem BioAssay AID220 (DTP/NCI, 2004).
